The nature of one data set: in vivo. The settings on record: rat, po.
The subject of another data set is seizure spread. Briefly: maximal electroshock (MES) test. The settings on record: for ED50: Rattus norvegicus, po, read-out: MES anticonvulsant activity (ED50).
The next data set deals with seizure threshold. Briefly: subcutaneous metrazol (sc Met) test. To be noted: Rattus norvegicus, po, read-out: sc Met anticonvulsant activity (ED50).
For the next data set, the system named is offspring. The settings on record: cited from earlier work.

Structures are written as SMILES. Bounds are passed on as bounds.

`CCCC(CCC)C(=O)NCC(C)O` (racemic) [HP-VPD (rac)] showed a TD50 in “in vivo” above 250 mg/kg. Besides, the “potency in MES test relative to VPA” value in the data set on seizure spread (MES test, vs VPA) is “five times more potent than VPA”. The ED50 with seizure spread was 92 mg/kg; in the data set with seizure threshold, above 250 mg/kg. Moreover, the “PI-MES (protective index): TD50/ED50” value in the data set with seizure spread (oral, rats, MES) is given as above 2.7.
Turning to `CCCC(CCC)C(=O)NC[C@@H](C)O` [(R)-HP-VPD, N-(2-OH-propyl)valpromide], in the data set “in vivo”, the TD50 was above 500 mg/kg. In addition, in the data set with seizure spread, the ED50 is 117 mg/kg. In the data set on seizure spread (oral, rats, MES), the “PI-MES (protective index): TD50/ED50” value is listed as above 4.3.
In the case of `CCCC(CCC)C(=O)NC[C@H](C)O` [(S)-HP-VPD, N-(2-OH-propyl)valpromide], the TD50 in “in vivo” was above 650 mg/kg. The “potency in MES test relative to (R)-HP-VPD” value in the data set on seizure spread (MES test, vs (R)-HP-VPD (II)) was “more than two times more potent than (R)-HP-VPD”. For the same molecule, the “SI (stereoselective index) = (R)-HP-VPD/(S)-HP-VPD” value with seizure spread (MES, oral, rats) was found to be 2.4. Moreover, the ED50 in the data set with seizure spread was 48 mg/kg. For the same molecule, in the data set on seizure spread (oral, rats, MES), the “PI-MES (protective index): TD50/ED50” value is above 13.5.
On to `CCCC(CCC)C(=O)O` [VPA, Valproic acid, reference compound], for which the teratogenicity entry in the data set with offspring was “associated with teragenecity”. For the same molecule, the ED50 in the data set on seizure spread came out at 490 mg/kg; in the data set on seizure threshold it was 180 mg/kg.

Values taken from patent publication US6323365A (Yissum Research Development Company of the Hebrew …, priority 2000, dated 2001).
